The text below walks through data of patent US10335503B2, “Compound that specifically binds to AMPA receptor” (Public University Corporation Yokohama City University, priority 2015, dated 2019).

In assay [1] the test system is GABA A (Agonist site). The assay can be described thus: Receptor binding panel: GABA A (Agonist site). As to conditions: K-2 at 1 × 10^−7 mol/L.
The target of assay [2] is Opiate κ (Homo sapiens, UniProt P41145). As to the kind of experiment: Receptor binding panel: Opiate κ. As to conditions: K-2 at 1 × 10^−7 mol/L.
Assay [3] relates to AMPA receptor. As to the kind of experiment: Biochemical experiment: biotinylation and quantitative Western blot of AMPA receptor after administration to living rat. It is filed as in vivo. As to the method:
In the LC-MS/MS experiment, all of the synthesized compounds were dissolved in 100% DMSO so as to have a concentration of 2.5 mM, diluted with physiological saline water immediately before administration (PEPA (1.2 pmol/g), M-1 (12 pmol/g), K-2 (12 pmol/g), M-3 (60 pmol/g), and M-2 (240 pmol/g)), and administered by the parenteral route. In the electrophysiological experiment, PEPA and K-2 were dissolved in 100% DMSO so as to have a concentration of 150 mM, diluted with ACSF as a reflux liquid immediately before the experiment so as to have a concentration of 150 μM and then used. In the biochemical experiment and the PET blocking experiment, K-2 was dissolved in 50% DMSO so as to have a concentration of 2.5 mM and 25 mM, and then administered to a rat at an amount of administration of 1 μl/weight (g) by the parenteral route so as to be 0.5 mg/kg and 5 mg/kg.
The LC-MS/MS experiment and the biochemical experiment were performed after a rat was allowed to get to sleep by inhalation of isoflurane while anesthesia was maintained using a dedicate carburetor at a concentration of 1.5%. […] In the LC-MS/MS experiment, the hippocampus region was collected in a thickness of approximately 2 mm from the extracted whole brain using Brain matrix (ASI instruments, U.S.), the tissue weight thereof was measured, and then the hippocampus region was put into a 1.5-ml conical tube. […]

Assay [4] has as its target Opiate μ (Homo sapiens, UniProt P35372). The assay can be described thus: Receptor binding panel: Opiate μ. As to conditions: K-2 at 1 × 10^−7 mol/L.
The target of assay [5] is Bradykinin B2 (Homo sapiens, UniProt P30411). The assay can be described thus: Receptor binding panel: Bradykinin B2. As to conditions: K-2 at 1 × 10^−7 mol/L.
Assay [6] has as its target Norepinephrine transporter (Homo sapiens, UniProt P23975). The assay can be described thus: Receptor binding panel: Norepinephrine transporter. As to conditions: K-2 at 1 × 10^−7 mol/L.
The target of assay [7] is Angiotensin AT2 (Homo sapiens, UniProt P50052). As to the kind of experiment: Receptor binding panel: Angiotensin AT2. As to conditions: K-2 at 1 × 10^−7 mol/L.
The target in assay [8] is α2A-Adrenergic (Homo sapiens, UniProt P08913). The assay can be described thus: Receptor binding panel: α2A-Adrenergic. As to conditions: K-2 at 1 × 10^−7 mol/L.
Assay [9] concerns the target Opiate δ (Homo sapiens, UniProt P41143). The assay can be described thus: Receptor binding panel: Opiate δ. The following applies: K-2 at 1 × 10^−7 mol/L.
Assay [10] deals with Dopamine D1 (Homo sapiens, UniProt P21728). The assay can be described thus: Receptor binding panel: Dopamine D1. As to conditions: K-2 at 1 × 10^−7 mol/L.
Assay [11] has as its target Vasopressin V1 (Homo sapiens, UniProt P37288). As to the kind of experiment: Receptor binding panel: Vasopressin V1. As to conditions: K-2 at 1 × 10^−7 mol/L.
Assay [12] has as its target Ca channel (Type N) (Homo sapiens, UniProt Q00975). The assay can be described thus: Receptor binding panel: Ca channel (Type N). The following applies: K-2 at 1 × 10^−7 mol/L.
In assay [13] the test system is K Channel SKCa. As to the kind of experiment: Receptor binding panel: K Channel SKCa. The following applies: K-2 at 1 × 10^−7 mol/L.
In assay [14] the target is Androgen (Homo sapiens, UniProt P10275). As to the kind of experiment: Receptor binding panel: Androgen. The following applies: K-2 at 1 × 10^−7 mol/L.
The target of assay [15] is Serotonin transporter (Homo sapiens, UniProt P31645). The assay can be described thus: Receptor binding panel: Serotonin transporter. As to conditions: K-2 at 1 × 10^−7 mol/L.
Assay [16] addresses Endothelin ETB (Homo sapiens, UniProt P24530). As to the kind of experiment: Receptor binding panel: Endothelin ETB. As to conditions: K-2 at 1 × 10^−7 mol/L.
Assay [17] deals with Na channel site 2. As to the kind of experiment: Receptor binding panel: Na channel site 2. The following applies: K-2 at 1 × 10^−7 mol/L.
Assay [18] concerns the target Muscarinic M1 (Homo sapiens, UniProt P11229). As to the kind of experiment: Receptor binding panel: Muscarinic M1. The following applies: K-2 at 1 × 10^−7 mol/L.
In assay [19] the target is α1A-Adrenergic (Homo sapiens, UniProt P35348). As to the kind of experiment: Receptor binding panel: α1A-Adrenergic. The following applies: K-2 at 1 × 10^−7 mol/L.
For assay [20], the target named is PAF (Homo sapiens, UniProt P25105). As to the kind of experiment: Receptor binding panel: PAF. As to conditions: K-2 at 1 × 10^−7 mol/L.
Assay [21] relates to Glutamate (NMDA phencyclidine site). As to the kind of experiment: Receptor binding panel: Glutamate (NMDA phencyclidine site). The following applies: K-2 at 1 × 10^−7 mol/L.
The test system of assay [22] is GABA A (BZ central). As to the kind of experiment: Receptor binding panel: GABA A (BZ central). The following applies: K-2 at 1 × 10^−7 mol/L.

α2A-Adrenergic, sequence (P08913 whole entry): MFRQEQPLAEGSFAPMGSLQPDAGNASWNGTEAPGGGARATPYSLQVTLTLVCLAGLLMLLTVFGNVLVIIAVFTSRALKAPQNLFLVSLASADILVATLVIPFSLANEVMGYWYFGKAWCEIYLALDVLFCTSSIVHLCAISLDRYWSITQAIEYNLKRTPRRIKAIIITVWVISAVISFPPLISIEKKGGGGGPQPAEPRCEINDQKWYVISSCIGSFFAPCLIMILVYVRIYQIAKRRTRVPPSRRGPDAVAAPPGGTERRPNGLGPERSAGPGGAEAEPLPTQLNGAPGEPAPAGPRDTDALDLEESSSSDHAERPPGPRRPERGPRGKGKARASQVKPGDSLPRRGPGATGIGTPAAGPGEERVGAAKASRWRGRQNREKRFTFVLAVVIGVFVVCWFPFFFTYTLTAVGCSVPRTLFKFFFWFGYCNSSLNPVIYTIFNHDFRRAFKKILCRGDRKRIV
Endothelin ETB, sequence (P24530 27-442): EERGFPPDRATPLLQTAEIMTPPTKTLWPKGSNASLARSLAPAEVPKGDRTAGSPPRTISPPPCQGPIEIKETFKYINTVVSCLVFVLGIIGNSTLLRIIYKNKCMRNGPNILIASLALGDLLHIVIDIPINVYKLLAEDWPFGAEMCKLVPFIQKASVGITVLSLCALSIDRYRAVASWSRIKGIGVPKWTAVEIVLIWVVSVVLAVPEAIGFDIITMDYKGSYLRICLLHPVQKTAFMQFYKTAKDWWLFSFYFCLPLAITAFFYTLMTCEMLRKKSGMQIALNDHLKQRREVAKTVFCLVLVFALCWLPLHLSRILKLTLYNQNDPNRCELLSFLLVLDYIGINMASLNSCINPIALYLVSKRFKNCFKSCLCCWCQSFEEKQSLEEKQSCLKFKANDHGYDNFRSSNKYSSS
Muscarinic M1, sequence (P11229 whole entry): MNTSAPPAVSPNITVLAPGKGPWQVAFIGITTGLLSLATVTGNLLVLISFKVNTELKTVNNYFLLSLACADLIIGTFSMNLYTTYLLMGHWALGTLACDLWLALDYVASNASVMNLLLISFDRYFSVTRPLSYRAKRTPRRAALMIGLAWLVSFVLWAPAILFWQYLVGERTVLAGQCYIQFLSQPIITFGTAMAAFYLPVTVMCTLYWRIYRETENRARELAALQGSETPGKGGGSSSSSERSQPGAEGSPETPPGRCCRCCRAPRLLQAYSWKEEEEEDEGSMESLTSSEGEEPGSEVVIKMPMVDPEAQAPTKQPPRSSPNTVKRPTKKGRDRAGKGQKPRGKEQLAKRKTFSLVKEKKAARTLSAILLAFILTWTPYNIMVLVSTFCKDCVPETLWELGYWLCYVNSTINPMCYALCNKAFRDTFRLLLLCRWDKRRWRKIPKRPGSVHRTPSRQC
α1A-Adrenergic, sequence (P35348 whole entry): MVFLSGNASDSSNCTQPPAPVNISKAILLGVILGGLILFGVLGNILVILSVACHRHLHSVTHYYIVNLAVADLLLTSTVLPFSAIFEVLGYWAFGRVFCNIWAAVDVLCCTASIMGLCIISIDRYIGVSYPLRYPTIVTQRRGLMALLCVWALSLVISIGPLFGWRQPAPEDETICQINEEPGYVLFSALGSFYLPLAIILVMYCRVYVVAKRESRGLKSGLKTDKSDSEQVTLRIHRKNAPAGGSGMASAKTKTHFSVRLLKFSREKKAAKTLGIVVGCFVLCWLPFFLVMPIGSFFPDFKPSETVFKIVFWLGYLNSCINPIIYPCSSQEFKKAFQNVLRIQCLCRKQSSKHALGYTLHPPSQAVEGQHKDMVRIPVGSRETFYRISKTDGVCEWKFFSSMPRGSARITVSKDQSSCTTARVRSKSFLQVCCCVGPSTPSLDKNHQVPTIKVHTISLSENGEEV
Serotonin transporter, sequence (P31645 whole entry): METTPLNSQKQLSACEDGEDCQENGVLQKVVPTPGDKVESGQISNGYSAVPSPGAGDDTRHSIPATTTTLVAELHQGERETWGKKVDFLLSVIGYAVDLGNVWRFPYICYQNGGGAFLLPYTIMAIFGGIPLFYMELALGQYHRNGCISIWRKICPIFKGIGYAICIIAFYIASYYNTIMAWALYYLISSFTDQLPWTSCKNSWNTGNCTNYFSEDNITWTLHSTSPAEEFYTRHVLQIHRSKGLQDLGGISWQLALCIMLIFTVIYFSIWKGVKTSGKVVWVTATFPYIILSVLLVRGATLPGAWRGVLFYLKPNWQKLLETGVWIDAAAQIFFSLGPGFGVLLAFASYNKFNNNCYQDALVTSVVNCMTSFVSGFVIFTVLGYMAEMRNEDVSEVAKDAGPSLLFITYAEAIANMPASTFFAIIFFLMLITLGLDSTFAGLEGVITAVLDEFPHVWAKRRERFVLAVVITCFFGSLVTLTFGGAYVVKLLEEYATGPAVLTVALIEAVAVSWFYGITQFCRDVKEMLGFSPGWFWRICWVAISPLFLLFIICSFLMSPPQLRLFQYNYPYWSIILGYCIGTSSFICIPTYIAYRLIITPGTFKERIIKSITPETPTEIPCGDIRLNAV
Bradykinin B2, sequence (P30411 whole entry): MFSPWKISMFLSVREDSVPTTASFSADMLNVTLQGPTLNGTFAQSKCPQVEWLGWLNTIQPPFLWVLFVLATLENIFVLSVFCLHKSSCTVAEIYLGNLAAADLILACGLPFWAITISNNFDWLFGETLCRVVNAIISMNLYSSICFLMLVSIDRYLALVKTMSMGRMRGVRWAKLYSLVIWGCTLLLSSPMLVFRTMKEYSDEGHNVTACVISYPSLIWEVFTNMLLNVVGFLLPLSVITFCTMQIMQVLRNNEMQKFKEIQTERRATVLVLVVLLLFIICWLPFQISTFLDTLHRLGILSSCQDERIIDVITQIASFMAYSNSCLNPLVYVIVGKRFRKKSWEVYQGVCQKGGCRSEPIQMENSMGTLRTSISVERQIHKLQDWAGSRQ
Angiotensin AT2, sequence (P50052 whole entry): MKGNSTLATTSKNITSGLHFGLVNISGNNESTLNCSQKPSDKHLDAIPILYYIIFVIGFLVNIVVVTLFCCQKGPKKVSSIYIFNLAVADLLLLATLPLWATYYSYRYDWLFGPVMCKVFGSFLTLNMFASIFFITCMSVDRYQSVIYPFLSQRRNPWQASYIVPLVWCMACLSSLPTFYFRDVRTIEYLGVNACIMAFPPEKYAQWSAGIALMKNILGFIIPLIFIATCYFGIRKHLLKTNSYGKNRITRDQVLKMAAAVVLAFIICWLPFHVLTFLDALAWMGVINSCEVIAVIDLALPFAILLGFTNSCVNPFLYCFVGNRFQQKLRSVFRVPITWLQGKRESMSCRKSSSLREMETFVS
Opiate δ, sequence (P41143 whole entry): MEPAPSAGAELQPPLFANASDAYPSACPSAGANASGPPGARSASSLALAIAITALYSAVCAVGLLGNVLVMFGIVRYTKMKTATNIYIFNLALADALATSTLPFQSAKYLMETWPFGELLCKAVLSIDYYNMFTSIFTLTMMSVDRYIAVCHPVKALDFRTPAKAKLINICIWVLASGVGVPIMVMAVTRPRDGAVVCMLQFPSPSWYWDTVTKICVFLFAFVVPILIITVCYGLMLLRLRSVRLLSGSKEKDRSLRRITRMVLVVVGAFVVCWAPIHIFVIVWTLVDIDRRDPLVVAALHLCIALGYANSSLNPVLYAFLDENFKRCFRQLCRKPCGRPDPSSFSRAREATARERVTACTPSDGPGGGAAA
Dopamine D1, sequence (P21728 whole entry): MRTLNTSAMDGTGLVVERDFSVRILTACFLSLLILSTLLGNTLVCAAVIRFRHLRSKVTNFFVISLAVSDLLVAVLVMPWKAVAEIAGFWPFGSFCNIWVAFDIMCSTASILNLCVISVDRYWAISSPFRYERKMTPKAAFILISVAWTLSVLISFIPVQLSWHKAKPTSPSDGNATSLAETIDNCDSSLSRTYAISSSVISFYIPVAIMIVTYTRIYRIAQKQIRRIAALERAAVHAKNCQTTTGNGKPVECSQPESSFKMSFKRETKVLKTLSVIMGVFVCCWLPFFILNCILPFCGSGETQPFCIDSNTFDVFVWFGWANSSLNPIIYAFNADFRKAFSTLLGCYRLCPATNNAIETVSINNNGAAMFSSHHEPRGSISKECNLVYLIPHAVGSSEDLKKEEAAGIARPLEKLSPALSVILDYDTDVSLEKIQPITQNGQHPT
PAF, sequence (P25105 whole entry): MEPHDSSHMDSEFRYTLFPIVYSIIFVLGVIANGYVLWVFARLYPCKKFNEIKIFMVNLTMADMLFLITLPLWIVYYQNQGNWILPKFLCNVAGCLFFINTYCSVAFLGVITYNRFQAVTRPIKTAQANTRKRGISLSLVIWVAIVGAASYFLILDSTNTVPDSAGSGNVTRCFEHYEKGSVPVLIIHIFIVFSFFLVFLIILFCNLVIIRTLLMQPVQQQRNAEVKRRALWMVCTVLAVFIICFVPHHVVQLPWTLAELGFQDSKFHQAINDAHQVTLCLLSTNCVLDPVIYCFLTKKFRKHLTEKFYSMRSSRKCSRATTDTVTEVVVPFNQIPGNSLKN
Opiate κ, sequence (P41145 whole entry): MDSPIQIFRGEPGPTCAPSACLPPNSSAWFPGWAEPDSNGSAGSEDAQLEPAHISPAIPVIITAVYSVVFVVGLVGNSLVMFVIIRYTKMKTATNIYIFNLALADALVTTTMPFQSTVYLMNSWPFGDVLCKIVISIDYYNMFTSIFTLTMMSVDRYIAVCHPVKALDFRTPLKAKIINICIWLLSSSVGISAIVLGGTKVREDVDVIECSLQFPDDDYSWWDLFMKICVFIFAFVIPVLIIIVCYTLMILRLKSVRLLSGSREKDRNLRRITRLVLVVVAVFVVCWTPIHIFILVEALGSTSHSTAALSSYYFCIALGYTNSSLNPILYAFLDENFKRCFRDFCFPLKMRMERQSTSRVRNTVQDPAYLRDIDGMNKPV

For the compound `CN(CCSc1cc(F)c(OCC(N)=O)c(F)c1)S(=O)(=O)c1ccccc1` [K-2, {4-[2-(benzenesulfonyl-methyl-amino)-ethylsulfanil]-2,6-difluoro-phenoxy}-acetamide], the “Inhibition (%)” value is 0.38% in assay [1]; 0.00% in assay [13]; 11.15% in assay [17]; 5.02% in [21]; 1.54% in [22]. Also, the inhibition at 0.1 µM in [2] is 0%; in [4], 8.78%; in [5], 10.3%; in assay [6] it was 0%; in assay [7], 1.05%; in assay [8], 8.77%. Besides, the inhibition at 0.1 µM was 0.3% in [9]; 10.2% in assay [10]; 4.76% in [11]; 0.31% in [12]; 0.57% in [14]; 0.17% in assay [15]. Besides, the inhibition at 0.1 µM came to 0% in [16], 2.24% in [18], 0.21% in [19] and 0% in assay [20]. Further, the “AMPA receptor presented on the surface of the cell membrane” value in assay [3] (5 mg/kg of K-2, hippocampus, vs 50% DMSO) is 136%±14. Also, the “change in the total amount of the AMPA receptors” value in assay [3] (5 mg/kg of K-2, same animal) is “not recognized”.
